Data as given in US20110071108A1, “Beta-Cyclodextrin Derivatives as Antibacterial Agents” (Pinnacle Pharmaceuticals, Inc., priority 2005, published 2011).

Experiments:
Test in all cases: Bacterial panel testing, MIC by broth microdilution
Format in all cases: cell-based
Settings in all cases: 20-24 hours growth
Eschericia coli = tested on: Eschericia coli
Method in brief: (§1)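 Read-out: clear (no-growth) wells scored after 20-24 h growth to define compound potency. Inoculum was McFarland-matched bacteria from 2-4 h cultures at 37° C in strain-appropriate Mueller-Hinton or Brain Heart infusion media. Compound (10 μg/ml DMSO stock) was serially diluted twofold across plate columns.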

Staphylococcus aureus = tested on: Staphylococcus aureus
Method in brief: as §1

Enterococcus faecium = tested on: Enterococcus faecium
Method in brief: as §1

Salmonella choleraesuis = tested on: Salmonella choleraesuis
Method in brief: as §1

Bacillus atrophaeus = tested on: Bacillus atrophaeus
Method in brief: as §1

Pseudomonas aeruginosa = tested on: Pseudomonas aeruginosa
Method in brief: as §1

Cl.Cl.Cl.Cl.Cl.Cl.Cl.Cl.Cl.Cl.Cl.Cl.Cl.Cl.Cl.Cl.Cl.Cl.Cl.Cl.Cl.NCCCCC(N)C(=O)NC(CCCCN)C(=O)NCC1OC2OC3C(CNC(=O)C(CCCCN)NC(=O)C(N)CCCCN)OC(OC4C(CNC(=O)C(CCCCN)NC(=O)C(N)CCCCN)OC(OC5C(CNC(=O)C(CCCCN)NC(=O)C(N)CCCCN)OC(OC6C(CNC(=O)C(CCCCN)NC(=O)C(N)CCCCN)OC(OC7C(CNC(=O)C(CCCCN)NC(=O)C(N)CCCCN)OC(OC8C(CNC(=O)C(CCCCN)NC(=O)C(N)CCCCN)OC(OC1C(O)C2O)C(O)C8O)C(O)C7O)C(O)C6O)C(O)C5O)C(O)C4O)C(O)C3O (stereo not drawn)
>200 µg/mL: MIC EC (Eschericia coli) | MIC SA (Staphylococcus aureus) | MIC EF (Enterococcus faecium) | MIC SC (Salmonella choleraesuis) | MIC BA (Bacillus atrophaeus) | MIC PA (Pseudomonas aeruginosa)

Cl.Cl.Cl.Cl.Cl.Cl.Cl.O=C(NCC1OC2OC3C(CNC(=O)C4CC(O)CN4)OC(OC4C(CNC(=O)C5CC(O)CN5)OC(OC5C(CNC(=O)C6CC(O)CN6)OC(OC6C(CNC(=O)C7CC(O)CN7)OC(OC7C(CNC(=O)C8CC(O)CN8)OC(OC8C(CNC(=O)C9CC(O)CN9)OC(OC1C(O)C2O)C(O)C8O)C(O)C7O)C(O)C6O)C(O)C5O)C(O)C4O)C(O)C3O)C1CC(O)CN1 (stereo not drawn)
>200 µg/mL: MIC EC (Eschericia coli) | MIC SA (Staphylococcus aureus) | MIC EF (Enterococcus faecium) | MIC SC (Salmonella choleraesuis) | MIC BA (Bacillus atrophaeus) | MIC PA (Pseudomonas aeruginosa)

O[C@@H]1[C@@H](O)[C@H]2O[C@H]3[C@H](O)[C@@H](O)[C@@H](O[C@H]4[C@H](O)[C@@H](O)[C@@H](O[C@H]5[C@H](O)[C@@H](O)[C@@H](O[C@H]6[C@H](O)[C@@H](O)[C@@H](O[C@H]7[C@H](O)[C@@H](O)[C@@H](O[C@H]8[C@H](O)[C@@H](O)[C@@H](O[C@@H]1[C@@H](Cn1ccnc1)O2)O[C@@H]8Cn1ccnc1)O[C@@H]7Cn1ccnc1)O[C@@H]6Cn1ccnc1)O[C@@H]5Cn1ccnc1)O[C@@H]4Cn1ccnc1)O[C@@H]3Cn1ccnc1
>200 µg/mL: MIC EC (Eschericia coli) | MIC SA (Staphylococcus aureus) | MIC EF (Enterococcus faecium) | MIC SC (Salmonella choleraesuis) | MIC BA (Bacillus atrophaeus) | MIC PA (Pseudomonas aeruginosa)

OCCCNC[C@H]1O[C@@H]2O[C@H]3[C@H](O)[C@@H](O)[C@@H](O[C@H]4[C@H](O)[C@@H](O)[C@@H](O[C@H]5[C@H](O)[C@@H](O)[C@@H](O[C@H]6[C@H](O)[C@@H](O)[C@@H](O[C@H]7[C@H](O)[C@@H](O)[C@@H](O[C@H]8[C@H](O)[C@@H](O)[C@@H](O[C@H]1[C@H](O)[C@H]2O)O[C@@H]8CNCCCO)O[C@@H]7CNCCCO)O[C@@H]6CNCCCO)O[C@@H]5CNCCCO)O[C@@H]4CNCCCO)O[C@@H]3CNCCCO
>200 µg/mL: MIC EC (Eschericia coli) | MIC SA (Staphylococcus aureus) | MIC EF (Enterococcus faecium) | MIC SC (Salmonella choleraesuis) | MIC BA (Bacillus atrophaeus) | MIC PA (Pseudomonas aeruginosa)

CN(C)CCNC[C@H]1O[C@@H]2O[C@H]3[C@H](O)[C@@H](O)[C@@H](O[C@H]4[C@H](O)[C@@H](O)[C@@H](O[C@H]5[C@H](O)[C@@H](O)[C@@H](O[C@H]6[C@H](O)[C@@H](O)[C@@H](O[C@H]7[C@H](O)[C@@H](O)[C@@H](O[C@H]8[C@H](O)[C@@H](O)[C@@H](O[C@H]1[C@H](O)[C@H]2O)O[C@@H]8CNCCN(C)C)O[C@@H]7CNCCN(C)C)O[C@@H]6CNCCN(C)C)O[C@@H]5CNCCN(C)C)O[C@@H]4CNCCN(C)C)O[C@@H]3CNCCN(C)C
>200 µg/mL: MIC EC (Eschericia coli) | MIC SA (Staphylococcus aureus) | MIC EF (Enterococcus faecium) | MIC SC (Salmonella choleraesuis) | MIC BA (Bacillus atrophaeus) | MIC PA (Pseudomonas aeruginosa)

O[C@@H]1[C@@H](O)[C@H]2O[C@H]3[C@H](O)[C@@H](O)[C@@H](O[C@H]4[C@H](O)[C@@H](O)[C@@H](O[C@H]5[C@H](O)[C@@H](O)[C@@H](O[C@H]6[C@H](O)[C@@H](O)[C@@H](O[C@H]7[C@H](O)[C@@H](O)[C@@H](O[C@H]8[C@H](O)[C@@H](O)[C@@H](O[C@@H]1[C@@H](CN1CCOCC1)O2)O[C@@H]8CN1CCOCC1)O[C@@H]7CN1CCOCC1)O[C@@H]6CN1CCOCC1)O[C@@H]5CN1CCOCC1)O[C@@H]4CN1CCOCC1)O[C@@H]3CN1CCOCC1
>200 µg/mL: MIC EC (Eschericia coli) | MIC SA (Staphylococcus aureus) | MIC EF (Enterococcus faecium) | MIC SC (Salmonella choleraesuis) | MIC BA (Bacillus atrophaeus) | MIC PA (Pseudomonas aeruginosa)

Oc1ccc(NC[C@H]2O[C@@H]3O[C@H]4[C@H](O)[C@@H](O)[C@@H](O[C@H]5[C@H](O)[C@@H](O)[C@@H](O[C@H]6[C@H](O)[C@@H](O)[C@@H](O[C@H]7[C@H](O)[C@@H](O)[C@@H](O[C@H]8[C@H](O)[C@@H](O)[C@@H](O[C@H]9[C@H](O)[C@@H](O)[C@@H](O[C@H]2[C@H](O)[C@H]3O)O[C@@H]9CNc2ccc(O)cc2)O[C@@H]8CNc2ccc(O)cc2)O[C@@H]7CNc2ccc(O)cc2)O[C@@H]6CNc2ccc(O)cc2)O[C@@H]5CNc2ccc(O)cc2)O[C@@H]4CNc2ccc(O)cc2)cc1
>200 µg/mL: MIC EC (Eschericia coli) | MIC SA (Staphylococcus aureus) | MIC EF (Enterococcus faecium) | MIC SC (Salmonella choleraesuis) | MIC BA (Bacillus atrophaeus) | MIC PA (Pseudomonas aeruginosa)

Cc1c(NC[C@H]2O[C@@H]3O[C@H]4[C@H](O)[C@@H](O)[C@@H](O[C@H]5[C@H](O)[C@@H](O)[C@@H](O[C@H]6[C@H](O)[C@@H](O)[C@@H](O[C@H]7[C@H](O)[C@@H](O)[C@@H](O[C@H]8[C@H](O)[C@@H](O)[C@@H](O[C@H]9[C@H](O)[C@@H](O)[C@@H](O[C@H]2[C@H](O)[C@H]3O)O[C@@H]9CNc2c(C)n(C)n(-c3ccccc3)c2=O)O[C@@H]8CNc2c(C)n(C)n(-c3ccccc3)c2=O)O[C@@H]7CNc2c(C)n(C)n(-c3ccccc3)c2=O)O[C@@H]6CNc2c(C)n(C)n(-c3ccccc3)c2=O)O[C@@H]5CNc2c(C)n(C)n(-c3ccccc3)c2=O)O[C@@H]4CNc2c(C)n(C)n(-c3ccccc3)c2=O)c(=O)n(-c2ccccc2)n1C
>200 µg/mL: MIC EC (Eschericia coli) | MIC SA (Staphylococcus aureus) | MIC EF (Enterococcus faecium) | MIC SC (Salmonella choleraesuis) | MIC BA (Bacillus atrophaeus) | MIC PA (Pseudomonas aeruginosa)

O=C(C1CCCO1)N1CCN(CC2OC3OC4C(CN5CCN(C(=O)C6CCCO6)CC5)OC(OC5C(CN6CCN(C(=O)C7CCCO7)CC6)OC(OC6C(CN7CCN(C(=O)C8CCCO8)CC7)OC(OC7C(CN8CCN(C(=O)C9CCCO9)CC8)OC(OC8C(CN9CCN(C(=O)C%10CCCO%10)CC9)OC(OC9C(CN%10CCN(C(=O)C%11CCCO%11)CC%10)OC(OC2C(O)C3O)C(O)C9O)C(O)C8O)C(O)C7O)C(O)C6O)C(O)C5O)C(O)C4O)CC1 (stereo not drawn)
>200 µg/mL: MIC EC (Eschericia coli) | MIC SA (Staphylococcus aureus) | MIC EF (Enterococcus faecium) | MIC SC (Salmonella choleraesuis) | MIC BA (Bacillus atrophaeus) | MIC PA (Pseudomonas aeruginosa)

OC1C2OC(CNc3ccccc3)C(OC3OC(CNc4ccccc4)C(OC4OC(CNc5ccccc5)C(OC5OC(CNc6ccccc6)C(OC6OC(CNc7ccccc7)C(OC7OC(CNc8ccccc8)C(OC8OC(CNc9ccccc9)C(O2)C(O)C8O)C(O)C7O)C(O)C6O)C(O)C5O)C(O)C4O)C(O)C3O)C1O (stereo not drawn)
>200 µg/mL: MIC EC (Eschericia coli) | MIC SA (Staphylococcus aureus) | MIC EF (Enterococcus faecium) | MIC SC (Salmonella choleraesuis) | MIC BA (Bacillus atrophaeus) | MIC PA (Pseudomonas aeruginosa)

CCCCCCCCCCCC[N+]12CC[N+](CC(=O)NCC3OC4OC5C(CNC(=O)C[N+]67CC[N+](CCCCCCCCCCCC)(CC6)CC7)OC(OC6C(CNC(=O)C[N+]78CC[N+](CCCCCCCCCCCC)(CC7)CC8)OC(OC7C(CNC(=O)C[N+]89CC[N+](CCCCCCCCCCCC)(CC8)CC9)OC(OC8C(CNC(=O)C[N+]9%10CC[N+](CCCCCCCCCCCC)(CC9)CC%10)OC(OC9C(CNC(=O)C[N+]%10%11CC[N+](CCCCCCCCCCCC)(CC%10)CC%11)OC(OC%10C(CNC(=O)C[N+]%11%12CC[N+](CCCCCCCCCCCC)(CC%11)CC%12)OC(OC3C(O)C4O)C(O)C%10O)C(O)C9O)C(O)C8O)C(O)C7O)C(O)C6O)C(O)C5O)(CC1)CC2 (stereo not drawn)
>200 µg/mL: MIC EC (Eschericia coli) | MIC SA (Staphylococcus aureus) | MIC EF (Enterococcus faecium) | MIC SC (Salmonella choleraesuis) | MIC BA (Bacillus atrophaeus) | MIC PA (Pseudomonas aeruginosa)

OC1C2OC(CN3CCN(c4ccccn4)CC3)C(OC3OC(CN4CCN(c5ccccn5)CC4)C(OC4OC(CN5CCN(c6ccccn6)CC5)C(OC5OC(CN6CCN(c7ccccn7)CC6)C(OC6OC(CN7CCN(c8ccccn8)CC7)C(OC7OC(CN8CCN(c9ccccn9)CC8)C(OC8OC(CN9CCN(c%10ccccn%10)CC9)C(O2)C(O)C8O)C(O)C7O)C(O)C6O)C(O)C5O)C(O)C4O)C(O)C3O)C1O (stereo not drawn)
>200 µg/mL: MIC EC (Eschericia coli) | MIC SA (Staphylococcus aureus) | MIC EF (Enterococcus faecium) | MIC SC (Salmonella choleraesuis) | MIC BA (Bacillus atrophaeus) | MIC PA (Pseudomonas aeruginosa)

Cl.Cl.Cl.Cl.Cl.Cl.NCCCSCC1OC2OC3C(CSCCCN)OC(OC4C(CSCCCN)OC(OC5C(CSCCCN)OC(OC6C(CSCCCN)OC(OC7C(CSCCCN)OC(OC1C(O)C2O)C(O)C7O)C(O)C6O)C(O)C5O)C(O)C4O)C(O)C3O (stereo not drawn)
>200 µg/mL: MIC EC (Eschericia coli) | MIC SA (Staphylococcus aureus) | MIC EF (Enterococcus faecium) | MIC SC (Salmonella choleraesuis) | MIC BA (Bacillus atrophaeus) | MIC PA (Pseudomonas aeruginosa)

COCCNCC1OC2OC3C(CNCCOC)OC(OC4C(CNCCOC)OC(OC5C(CNCCOC)OC(OC6C(CNCCOC)OC(OC7C(CNCCOC)OC(OC8C(CNCCOC)OC(OC1C(O)C2O)C(O)C8O)C(O)C7O)C(O)C6O)C(O)C5O)C(O)C4O)C(O)C3O (stereo not drawn)
>200 µg/mL: MIC EC (Eschericia coli) | MIC SA (Staphylococcus aureus) | MIC EF (Enterococcus faecium) | MIC SC (Salmonella choleraesuis) | MIC BA (Bacillus atrophaeus) | MIC PA (Pseudomonas aeruginosa)

CC(=O)NCC1OC2OC3C(CNC(C)=O)OC(OC4C(CNC(C)=O)OC(OC5C(CNC(C)=O)OC(OC6C(CNC(C)=O)OC(OC7C(CNC(C)=O)OC(OC8C(CNC(C)=O)OC(OC1C(O)C2O)C(O)C8O)C(O)C7O)C(O)C6O)C(O)C5O)C(O)C4O)C(O)C3O (stereo not drawn)
>200 µg/mL: MIC EC (Eschericia coli) | MIC SA (Staphylococcus aureus) | MIC EF (Enterococcus faecium) | MIC SC (Salmonella choleraesuis) | MIC BA (Bacillus atrophaeus) | MIC PA (Pseudomonas aeruginosa)
